In patent US20100267697A1, “ION CHANNEL MODULATORS” (Wyeth, priority 2006, published 2010):

Target: T1, human Cav2.2 (composed of the subunits α1, β3 and α2δ) (Homo sapiens, UniProt Q00975)
T1 construct: expressed in transfected cells
Test: FLIPR assay (TSA201 cells stably transfected with human Cav2.2 and human Kir2.3, FLUO-4 Ca2+ signal, KCl depolarization)
Format: cell-based
Conditions: 70 mM KCl depolarization, average value
Procedure: TSA201 cells stably transfected with human Cav2.2 (composed of the subunits α1, β3 and α2δ) and human Kir2.3 to enhance the FLIPR Ca^2+ signal were used. These cells were plated on 384-well collagen-coated plates (BD Bioscience, Franklin Lakes, N.J.) at a density of 2×10^4 cells/well one day prior to the FLIPR assay. […] Culture media is removed and replaced with 25 μl of the FLUO-4 dye solution and incubated for one hour at room temperature. The cell plate is then placed on the FLIPR where the dye is aspirated off and replaced with 25 μl of HBSS (Invitrogen, Carlsbad, Calif.). The HBSS is then aspirated and replaced with […] of compound which is diluted in HBSS with 1% DMSO. Compounds are incubated on the cells for 15 minutes. The cells are then depolarized with 25 μl of 140 mM KCl solution (also containing 2 mM CaCl2 and 10 mM HEPES). The final concentration of KCl on the cells is 70 mM.

T1 sequence (Q00975 whole entry): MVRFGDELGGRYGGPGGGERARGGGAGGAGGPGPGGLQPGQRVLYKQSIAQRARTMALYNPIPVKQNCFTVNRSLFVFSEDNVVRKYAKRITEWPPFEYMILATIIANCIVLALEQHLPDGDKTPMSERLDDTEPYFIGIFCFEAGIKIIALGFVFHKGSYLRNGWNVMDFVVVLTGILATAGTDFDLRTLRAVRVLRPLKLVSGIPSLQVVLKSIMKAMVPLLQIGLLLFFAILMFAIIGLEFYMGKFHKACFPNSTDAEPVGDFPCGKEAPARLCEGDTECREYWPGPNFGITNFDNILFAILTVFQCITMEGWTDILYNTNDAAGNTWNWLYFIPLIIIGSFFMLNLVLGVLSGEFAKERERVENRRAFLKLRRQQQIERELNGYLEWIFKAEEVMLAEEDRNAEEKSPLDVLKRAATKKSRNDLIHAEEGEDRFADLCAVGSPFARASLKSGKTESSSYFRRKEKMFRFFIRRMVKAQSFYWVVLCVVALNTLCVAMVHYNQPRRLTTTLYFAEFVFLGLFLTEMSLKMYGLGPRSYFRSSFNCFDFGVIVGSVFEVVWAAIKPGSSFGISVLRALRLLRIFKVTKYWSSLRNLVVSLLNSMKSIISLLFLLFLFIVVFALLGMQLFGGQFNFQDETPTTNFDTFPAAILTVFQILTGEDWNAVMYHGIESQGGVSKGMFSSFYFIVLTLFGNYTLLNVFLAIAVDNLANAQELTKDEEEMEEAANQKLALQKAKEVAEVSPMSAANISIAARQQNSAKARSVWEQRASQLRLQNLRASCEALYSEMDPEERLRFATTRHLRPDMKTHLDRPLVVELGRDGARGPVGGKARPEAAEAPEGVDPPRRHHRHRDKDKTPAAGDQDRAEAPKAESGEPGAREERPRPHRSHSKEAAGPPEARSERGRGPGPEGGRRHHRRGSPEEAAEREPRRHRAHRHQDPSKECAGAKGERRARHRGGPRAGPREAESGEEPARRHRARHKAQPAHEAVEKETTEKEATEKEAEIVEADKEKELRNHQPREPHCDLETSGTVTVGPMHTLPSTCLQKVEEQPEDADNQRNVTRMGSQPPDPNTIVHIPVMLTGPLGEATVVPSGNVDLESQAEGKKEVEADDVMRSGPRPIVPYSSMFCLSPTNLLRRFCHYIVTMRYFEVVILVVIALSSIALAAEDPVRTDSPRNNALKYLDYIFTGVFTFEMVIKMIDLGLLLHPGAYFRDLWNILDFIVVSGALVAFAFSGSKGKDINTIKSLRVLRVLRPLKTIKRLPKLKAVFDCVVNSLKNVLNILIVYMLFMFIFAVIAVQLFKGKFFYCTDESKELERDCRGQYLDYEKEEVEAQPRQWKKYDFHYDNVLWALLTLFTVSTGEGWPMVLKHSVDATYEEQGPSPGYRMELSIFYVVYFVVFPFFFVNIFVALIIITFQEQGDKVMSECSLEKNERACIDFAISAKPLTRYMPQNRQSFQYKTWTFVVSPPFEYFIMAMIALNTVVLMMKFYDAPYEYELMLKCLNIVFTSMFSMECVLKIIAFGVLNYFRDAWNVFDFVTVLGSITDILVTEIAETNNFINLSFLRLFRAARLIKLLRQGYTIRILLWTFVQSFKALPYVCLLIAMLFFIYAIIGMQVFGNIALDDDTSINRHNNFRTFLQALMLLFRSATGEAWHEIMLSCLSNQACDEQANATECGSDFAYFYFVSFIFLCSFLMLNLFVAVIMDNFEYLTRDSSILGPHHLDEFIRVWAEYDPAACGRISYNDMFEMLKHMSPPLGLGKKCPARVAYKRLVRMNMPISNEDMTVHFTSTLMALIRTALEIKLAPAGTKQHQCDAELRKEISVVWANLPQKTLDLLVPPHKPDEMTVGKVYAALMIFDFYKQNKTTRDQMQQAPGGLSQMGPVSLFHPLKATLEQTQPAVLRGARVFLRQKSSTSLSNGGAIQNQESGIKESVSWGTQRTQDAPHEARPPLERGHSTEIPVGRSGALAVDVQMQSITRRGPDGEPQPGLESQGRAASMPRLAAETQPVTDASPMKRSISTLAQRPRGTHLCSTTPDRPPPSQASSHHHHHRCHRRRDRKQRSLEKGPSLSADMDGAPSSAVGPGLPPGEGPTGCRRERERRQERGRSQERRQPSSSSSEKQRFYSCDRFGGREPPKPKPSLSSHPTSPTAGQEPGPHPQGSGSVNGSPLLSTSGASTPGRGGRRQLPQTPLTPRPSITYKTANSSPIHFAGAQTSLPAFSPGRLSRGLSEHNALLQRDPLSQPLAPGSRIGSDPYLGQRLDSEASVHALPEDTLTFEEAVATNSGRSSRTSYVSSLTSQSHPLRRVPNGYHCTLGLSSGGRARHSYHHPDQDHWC
T1 sequence (P54284 whole entry partner): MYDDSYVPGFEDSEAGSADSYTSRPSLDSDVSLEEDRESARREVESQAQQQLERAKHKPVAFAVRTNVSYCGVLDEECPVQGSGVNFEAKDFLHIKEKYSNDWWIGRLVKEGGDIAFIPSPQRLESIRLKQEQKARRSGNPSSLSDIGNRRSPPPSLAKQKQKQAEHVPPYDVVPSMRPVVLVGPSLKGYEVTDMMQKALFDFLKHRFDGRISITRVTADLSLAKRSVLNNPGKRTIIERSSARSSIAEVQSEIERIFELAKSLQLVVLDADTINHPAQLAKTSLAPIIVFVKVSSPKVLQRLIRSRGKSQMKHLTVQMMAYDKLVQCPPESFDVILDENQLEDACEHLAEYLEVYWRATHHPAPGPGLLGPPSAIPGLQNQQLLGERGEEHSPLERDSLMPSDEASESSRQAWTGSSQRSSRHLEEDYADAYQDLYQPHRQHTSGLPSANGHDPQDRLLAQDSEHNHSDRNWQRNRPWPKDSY
T1 sequence (P54289 25-946 partner limits assumed): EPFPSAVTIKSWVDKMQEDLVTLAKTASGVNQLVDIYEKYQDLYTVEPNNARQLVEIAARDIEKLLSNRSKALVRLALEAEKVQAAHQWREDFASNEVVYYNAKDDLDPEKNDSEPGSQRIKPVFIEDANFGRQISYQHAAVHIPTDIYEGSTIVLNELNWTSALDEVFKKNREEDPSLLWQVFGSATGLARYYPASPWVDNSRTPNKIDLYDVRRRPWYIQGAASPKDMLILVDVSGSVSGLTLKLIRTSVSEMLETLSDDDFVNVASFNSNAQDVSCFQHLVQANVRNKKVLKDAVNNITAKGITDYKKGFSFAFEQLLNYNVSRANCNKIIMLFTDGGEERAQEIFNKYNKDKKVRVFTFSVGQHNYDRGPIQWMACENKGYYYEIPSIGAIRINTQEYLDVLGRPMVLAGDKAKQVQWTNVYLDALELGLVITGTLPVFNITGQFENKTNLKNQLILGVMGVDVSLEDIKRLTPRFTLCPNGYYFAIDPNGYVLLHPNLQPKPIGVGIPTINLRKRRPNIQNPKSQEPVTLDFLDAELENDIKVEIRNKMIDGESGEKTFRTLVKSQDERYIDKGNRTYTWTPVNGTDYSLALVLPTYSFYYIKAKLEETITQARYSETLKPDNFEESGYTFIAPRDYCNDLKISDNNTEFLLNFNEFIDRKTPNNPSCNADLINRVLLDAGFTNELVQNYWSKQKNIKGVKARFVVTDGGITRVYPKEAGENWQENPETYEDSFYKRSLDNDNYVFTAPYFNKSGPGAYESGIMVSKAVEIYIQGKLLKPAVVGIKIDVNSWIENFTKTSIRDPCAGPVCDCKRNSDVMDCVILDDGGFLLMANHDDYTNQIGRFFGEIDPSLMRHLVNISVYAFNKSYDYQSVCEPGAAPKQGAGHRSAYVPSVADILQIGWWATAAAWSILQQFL
T1 sequence (P54289 947-1103 partner limits assumed): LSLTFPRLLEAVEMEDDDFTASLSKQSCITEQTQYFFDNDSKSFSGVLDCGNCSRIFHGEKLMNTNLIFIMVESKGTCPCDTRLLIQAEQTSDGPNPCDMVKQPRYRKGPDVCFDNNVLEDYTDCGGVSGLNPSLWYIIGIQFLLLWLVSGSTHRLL

Point of comparison: `CC(C)(C)OC(=O)c1cccc(-c2ccc(CN(C(=O)C(C)(C)C)c3ccc(F)cc3)cn2)c1` [Compound 202, tert-butyl 3-(5-{[(2,2-dimethylpropanoyl)(4-fluorophenyl)amino]methyl}pyridin-2-yl)benzoate], IC50 11.1 µM. Against it:
- CN(C)CCCN1CCN(c2nc(CN(C(=O)C(C)(C)C)c3ccc(F)cc3)cs2)CC1 [Compound 166, N-[(2-{4-[3-(dimethylamino)propyl]piperazin-1-yl}-1,3-thiazol-4-yl)methyl]-N-(4-fluorophenyl)-2,2-dimethylpropanamide] — 1.8-fold higher, 19.8 µM
- CC(C)(C)C(=O)N(Cc1csc(N2CCN(C(c3ccccc3)c3ccccc3)CC2)n1)c1ccc(F)cc1 [Compound 167, N-({2-[4-(diphenylmethyl)piperazin-1-yl]-1,3-thiazol-4-yl}methyl)-N-(4-fluroophenyl)-2,2-dimethylpropanamide] — within 1.5-fold, 13.3 µM
- CCN(c1nc(CN(C(=O)C(C)(C)C)c2ccccc2)cs1)C1CC1 [Compound 168, N-({2-[cyclopropyl(ethyl)amino]-1,3-thiazol-4-yl}methyl)-2,2-dimethyl-N-phenylpropanamide] — 2.2-fold lower, 5.1 µM
- CCN(c1nc(CN(C(=O)C(C)(C)C)c2ccccc2F)cs1)C1CC1 [Compound 169, N-({2-[cyclopropyl(ethyl)amino]-1,3-thiazol-4-yl}methyl)-N-(2-fluorophenyl)-2,2-dimethylpropanamide] — 1.9-fold lower, 5.7 µM
- CCN(c1nc(CN(C(=O)C(C)(C)C)c2cccc(F)c2)cs1)C1CC1 [Compound 170, N-({2-[cyclopropyl(ethyl)amino]-1,3-thiazol-4-yl}methyl)-N-(3-fluorophenyl)-2,2-dimethylpropanamide] — 2.8-fold lower, 3.9 µM
- CCN(c1nc(CN(C(=O)C(C)(C)C)c2ccccc2C)cs1)C1CC1 [Compound 171, N-({2-[cyclopropyl(ethyl)amino]-1,3-thiazol-4-yl}methyl)-2,2-dimethyl-N-(2-methylphenyl)propanamide] — 1.7-fold lower, 6.5 µM
- CCN(c1nc(CN(C(=O)C(C)(C)C)c2cccc(C)c2)cs1)C1CC1 [Compound 172, N-({2-[cyclopropyl(ethyl)amino]-1,3-thiazol-4-yl}methyl)-2,2-dimethyl-N-(3-methylphenyl)propanamide] — 2.6-fold lower, 4.3 µM
- CCN(c1nc(CN(C(=O)C(C)(C)C)c2ccc(C)cc2)cs1)C1CC1 [Compound 173, N-({2-[cyclopropyl(ethyl)amino]-1,3-thiazol-4-yl}methyl)-2,2-dimethyl-N-(4-methylphenyl)propanamide] — 2.9-fold lower, 3.8 µM
- CCN(c1nc(CN(C(=O)C(C)(C)C)c2ccccc2OC)cs1)C1CC1 [Compound 174, N-({2-[cyclopropyl(ethyl)amino]-1,3-thiazol-4-yl}methyl)-N-(2-methoxyphenyl)-2,2-dimethylpropanamide] — 2.9-fold lower, 3.8 µM
- CCN(c1nc(CN(C(=O)C(C)(C)C)c2ccc(OC)cc2)cs1)C1CC1 [Compound 175, N-({2-[cyclopropyl(ethyl)amino]-1,3-thiazol-4-yl}methyl)-N-(4-methoxyphenyl)-2,2-dimethylpropanamide] — 3.1-fold lower, 3.6 µM
- CCN(c1nc(CN(C(=O)C(C)(C)C)c2cccc3c2CCCC3)cs1)C1CC1 [Compound 176, N-({2-[cyclopropyl(ethyl)amino]-1,3-thiazol-4-yl}methyl)-2,2-dimethyl-N-(5,6,7,8-tetrahydronaphthalen-1-yl)propanamide] — 1.6-fold lower, 7.1 µM
- CC(C)(C)C(=O)N(Cc1csc(N2CCN(Cc3ccccc3)CC2)n1)c1ccc(F)cc1 [Compound 177, N-{[2-(4-benzylpiperazin-1-yl)-1,3-thiazol-4-yl]methyl}-N-(4-fluorophenyl)-2,2-dimethylpropanamide] — within 1.5-fold, 9.3 µM
- CN(C)CCN1CCN(c2nc(CN(C(=O)C(C)(C)C)c3ccc(F)cc3)cs2)CC1 [Compound 178, N-[(2-{4-[2-(dimethylamino)ethyl]piperazin-1-yl}-1,3-thiazol-4-yl)methyl]-N-(4-fluorophenyl)-2,2-dimethylpropanamide] — 1.8-fold higher, 19.7 µM
- CC(C)(C)C(=O)N(Cc1csc(N(c2ccccc2)c2ccccc2)n1)c1ccc(F)cc1 [Compound 179, N-{[2-(diphenylamino)-1,3-thiazol-4-yl]methyl}-N-(4-fluorophenyl)-2,2-dimethylpropanamide] — 2.8-fold lower, 3.9 µM
- CC(C)(C)C(=O)N(Cc1csc(-c2ccccc2)n1)c1ccc(F)cc1 [Compound 180, N-(4-fluorophenyl)-2,2-dimethyl-N-[(2-phenyl-1,3-thiazol-4-yl)methyl]propanamide] — within 1.5-fold, 7.9 µM
- CC(C)(C)C(=O)N(Cc1csc(N2CCC3(CC2)OCCO3)n1)c1ccc(F)cc1 [Compound 181, N-{[2-(1,4-dioxa-8-azaspiro[4.5]dec-8-yl)-1,3-thiazol-4-yl]methyl}-N-(4-fluorophenyl)-2,2-dimethylpropanamide] — 4.1-fold lower, 2.7 µM
- CC(C)(C)C(=O)N(Cc1csc(N2CCC(O)CC2)n1)c1ccc(F)cc1 [Compound 182, N-(4-fluorophenyl)-N-{[2-(4-hydroxypiperidin-1-yl)-1,3-thiazol-4-yl]methyl}-2,2-dimethylpropanamide] — within 1.5-fold, 8.1 µM
- CC(C)(C)C(=O)N(Cc1csc(N2CCCCCC2)n1)c1ccc(F)cc1 [Compound 183, N-[(2-azepan-1-yl-1,3-thiazol-4-yl)methyl]-N-(4-fluorophenyl)-2,2-dimethylpropanamide] — 4.8-fold lower, 2.3 µM
- CC(C)(C)C(=O)N(Cc1csc(N2CCCCCCC2)n1)c1ccc(F)cc1 [Compound 184, N-[(2-azocan-1-yl-1,3-thiazol-4-yl)methyl]-N-(4-fluorophenyl)-2,2-dimethylpropanamide] — 6.9-fold lower, 1.6 µM
- CC(C)(C)C(=O)N(Cc1csc(N2CCC(CO)CC2)n1)c1ccc(F)cc1 [Compound 185, N-(4-fluorophenyl)-N-({2-[4-(hydroxymethyl)piperidin-1-yl]-1,3-thiazol-4-yl}methyl)-2,2-dimethylpropanamide] — 4.4-fold lower, 2.5 µM
- CC(C)(C)C(=O)N(Cc1csc(N2CCCC(O)C2)n1)c1ccc(F)cc1 (stereo not drawn) [Compound 186, N-(4-fluroophenyl)-N-{[2-(3-hydroxypiperidin-1-yl)-1,3-thiazol-4-yl]methyl}-2,2-dimethylpropanamide] — 2-fold lower, 5.6 µM
- CC(C)(C)C(=O)N(Cc1csc(N2CCCC(CO)C2)n1)c1ccc(F)cc1 (stereo not drawn) [Compound 187, N-(4-fluorophenyl)-N-({2-[3-(hydroxymethyl)piperidin-1-yl]-1,3-thiazol-4-yl}methyl)-2,2-dimethylpropanamide] — 3.7-fold lower, 3 µM
- CC(C)(C)C(=O)N(Cc1csc(N2CCC(C#N)CC2)n1)c1ccc(F)cc1 [Compound 188, N-{[2-(4-cyanopiperidin-1-yl)-1,3-thiazol-4-yl]methyl}-N-(4-fluorophenyl)-2,2-dimethylpropanamide] — 2.9-fold lower, 3.8 µM
- CC(C)(C)C(=O)N(Cc1csc(N2CCSCC2)n1)c1ccc(F)cc1 [Compound 189, N-(4-fluorophenyl)-2,2-dimethyl-N-[(2-thiomorpholin-4-yl-1,3-thiazol-4-yl)methyl]propanamide] — 6.9-fold lower, 1.6 µM
- CC1CC(C)CN(c2nc(CN(C(=O)C(C)(C)C)c3ccc(F)cc3)cs2)C1 (stereo not drawn) [Compound 190, N-{[2-(3,5-dimethylpiperidin-1-yl)-1,3-thiazol-4-yl]methyl}-N-(4-fluorophenyl)-2,2-dimethylpropanamide] — 5-fold lower, 2.2 µM
- CC1CCN(c2nc(CN(C(=O)C(C)(C)C)c3ccc(F)cc3)cs2)CC1 [Compound 192, N-(4-fluorophenyl)-2,2-dimethyl-N-{[2-(4-methylpiperidin-1-yl)-1,3-thiazol-4-yl]methyl}propanamide] — 5.8-fold lower, 1.9 µM
- CC(C)(C)C(=O)N(Cc1csc(N2CCC(c3ccccc3)CC2)n1)c1ccc(F)cc1 [Compound 193, N-(4-fluorophenyl)-2,2-dimethyl-N-{[2-(4-phenylpiperidin-1-yl)-1,3-thiazol-4-yl]methyl}propanamide] — 3.6-fold lower, 3.1 µM
- CC(C)(C)C(=O)N(Cc1cnc(N2CCCCC2)s1)c1ccc(F)cc1 [Compound 194, N-(4-fluorophenyl)-2,2-dimethyl-N-[(2-piperidin-1-yl-1,3-thiazol-5-yl)methyl]propanamide] — 3.5-fold lower, 3.2 µM
- CC(C)(C)C(=O)N(Cc1ccc(Cl)nc1)c1ccc(F)cc1 [Compound 195, N-[(6-chloropyridin-3-yl)methyl]-N-(4-fluorophenyl)-2,2-dimethylpropanamide] — within 1.5-fold, 10.1 µM
- CC(C)(C)C(=O)N(Cc1ccc(N2CCOCC2)nc1)c1ccc(F)cc1 [Compound 196, N-(4-fluorophenyl)-2,2-dimethyl-N-[(6-morpholin-4-ylpyridin-3-yl)methyl]propanamide] — within 1.5-fold, 13.8 µM
- CCN(c1nc(CN(C(C)=O)C2CCCCC2)cs1)C1CC1 [Compound 197, N-cyclohexyl-N-({2-[cyclopropyl(ethyl)amino]-1,3-thiaozl-4-yl}methyl)acetamide] — 1.9-fold lower, 5.7 µM
- CCN(c1nc(CN(C(=O)C2CCCCC2)C2CCCCC2)cs1)C1CC1 [Compound 198, N-cyclohexyl-N-({2-[cyclopropyl(ethyl)amino]-1,3-thiazol-4-yl}methyl)cyclohexanecarboxamide] — 3.4-fold lower, 3.3 µM
- CC(=O)N(Cc1csc(N2CCOCC2)n1)C1CCCCC1 [Compound 199, N-cyclohexyl-N-[(2-morpholin-4-yl-1,3-thiazol-4-yl)methyl]acetamide] — 2.5-fold higher, 27.2 µM
- O=C(C1CCCCC1)N(Cc1csc(N2CCOCC2)n1)C1CCCCC1 [Compound 200, N-cyclohexyl-N-[(2-morpholin-4-yl-1,3-thiazol-4-yl)methyl]cyclohexanecarboxamide] — 1.8-fold lower, 6.3 µM
- O=C(Cc1ccccc1)N(Cc1csc(N2CCOCC2)n1)C1CCCCC1 [Compound 201, N-cyclohexyl-N-[(2-morpholin-4-yl-1,3-thiazol-4-yl)methyl]-2-phenylacetamide] — within 1.5-fold, 9.7 µM
